“Also recorded” adds a separate entry of the source. Structures can show the parent of a compound that is named as a salt.
Biological target: T1, elastase from human granulocytes (Homo sapiens, UniProt P08246)
T1 construct: from tissue; host or cells: human granulocytes
T1 sequence (P08246 30-247 limits assumed): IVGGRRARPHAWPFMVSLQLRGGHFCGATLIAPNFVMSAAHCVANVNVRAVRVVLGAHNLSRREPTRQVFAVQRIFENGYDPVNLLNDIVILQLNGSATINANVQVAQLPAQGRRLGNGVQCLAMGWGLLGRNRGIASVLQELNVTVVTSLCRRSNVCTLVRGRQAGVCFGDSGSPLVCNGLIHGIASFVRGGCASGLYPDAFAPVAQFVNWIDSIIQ
Experiment: Inhibition of granulocyte elastase (enzyme inhibition test, substrate L-pyroglutaminyl-L-prolyl-L-valine-p-nitroanilide)
Format: biochemical
Settings: substrate L-pyroglutaminyl-L-prolyl-L-valine-p-nitro-anilide, read-out: IC50 (concentration for 50% inhibition) of granulocytic elastase
Experimental: The inhibition of granulocyte elastase was determined in an enzyme inhibition test using elastase from human granulocytes. In this test the specific substrate L-pyroglutaminyl-[…]-nitro-anilide was used ([…] et al., Scand. J. Lab. Invest. 43 (1983) 427-432). The IC50 values (concentrations for 50% inhibition) are shown in Table 1 for exemplary compounds according to the invention.

First: CCOC(=O)n1c(SCc2ccccc2)nc2ccccc2c1=O [Example 14]
Second: O=C(Oc1ccccc1)n1c(SCc2ccccc2)nc2ccccc2c1=O [Example 13]
The IC50 of the first is 1.5-fold higher: 6 µM for the first, 4 µM for the second.

Going from `Cc1nn(C(=O)Oc2ccccc2)c(=O)c2ccccc12` [Example 6] to `O=C(Oc1ccccc1)n1ncc2ccccc2c1=O` [Example 1, Phenyl 1(2 H)-phthalazinone-N-carboxylate], the IC50 falls from 0.75 µM to 0.2 µM (3.8-fold). The second is the more potent here.

Compared with `CCOC(=O)Oc1cccc2c(=O)n(C(=O)OCC)ccc12` [Example 15, Ethyl 5-ethoxycarbonyloxyisoquinolin-1(2 H)-one-N-carboxylate], `CCOC(=O)n1ccc2ccccc2c1=O` [Example 2] is 18-fold lower in IC50: 5.4 µM for the first, 0.3 µM for the second.

Compound `COC(=O)c1ccc(OC(=O)n2nnc3ccccc3c2=O)cc1` [Example 4] has an IC50 of 8.3 µM.

System: not listed separately
Experiment: Antithrombotic action in the tail-bleeding time model on the rat (modified test according to Diness)
Format: in vivo
Settings: groups of 10, oral administration, 200 mg/kg
Experimental: The compound from Example 14 at a dose of 200 mg/kg thus prolonged the bleeding time by 103%.

In the case of `CCOC(=O)n1c(SCc2ccccc2)nc2ccccc2c1=O` [Example 14], the “prolongation of the bleeding time” value is reported as 103%.

System: not listed separately
Experiment: Hygroscopicity of isolated solid
Format: physicochemical
Settings: hydrochloride

For `CN1CCCC(OC(=O)n2ccc3ccccc3c2=O)C1` (stereo not drawn) [Example 19, N'-Methylpiperidin-3-yl isoquinolin-1(2 H)-one-N-carboxylate hydrochloride], the “hygroscopicity / behaviour in air (in words)” value was “very hygroscopic; also recorded: deliquesces in air”.

Reference: patent US5679677A, “Heterocyclic carbamates, process for their preparation and medicaments” (Luitpold Pharma GmbH, priority 1993, dated 1997)
